Measurements from PubChem BioAssay AID330 (DTP/NCI, 2004).
Toxic doses and inconclusive results are not listed. The calls were made as follows: active = survival T/C of 150% or more; inactive = T/C below 125% in these data.

Tested on: P388 leukemia ip, CD2F1 mice, survival T/C
Assay: NCI In Vivo Anticancer Drug Screen. Data for tumor model P388 Leukemia (intraperitoneal) in CD2F1 (CDF1) mice
Conditions: endpoint: median survival time, higher = longer survival
Outline: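 Mice carrying the transplanted tumor received test compound or vehicle. Survival was recorded in each group, and the value is the treated-group measurement divided by that of the vehicle-treated control group.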

[1] = dose: 50.0 mg/kg/injection, schedule: Q01DX009 (ip), vehicle: saline
[2] = dose: 50.0 mg/kg/injection, schedule: Q01DX005 (ip), vehicle: Klucel (hydroxypropylcellulose) (HPC)
[3] = dose: 100.0 mg/kg/injection, schedule: Q01DX005 (ip), vehicle: Klucel (hydroxypropylcellulose) (HPC)
[4] = dose: 200.0 mg/kg/injection, schedule: Q01DX005 (ip), vehicle: Klucel (hydroxypropylcellulose) (HPC)
[5] = dose: 50.0 mg/kg/injection, schedule: Q01DX005 (ip), vehicle: saline with Tween-80
[6] = dose: 100.0 mg/kg/injection, schedule: Q01DX005 (ip), vehicle: saline with Tween-80
[7] = dose: 200.0 mg/kg/injection, schedule: Q01DX005 (ip), vehicle: saline with Tween-80
[8] = dose: 60.0 mg/kg/injection, schedule: Q01DX005 (ip), vehicle: saline with Tween-80
[9] = dose: 120.0 mg/kg/injection, schedule: Q01DX005 (ip), vehicle: saline with Tween-80
[10] = dose: 25.0 mg/kg/injection, schedule: Q01DX009 (ip), vehicle: other
[11] = dose: 50.0 mg/kg/injection, schedule: Q01DX009 (ip), vehicle: other
[12] = dose: 200.0 mg/kg/injection, schedule: Q01DX009 (ip), vehicle: other

Measured: T/C

[Cl][Sn]1([c]2ccccc2)[O]CCNCC[O]1
inactive: dose: 25.0 mg/kg/injection, schedule: Q01DX009 (ip), vehicle: suspension in saline 97 % of control | [1] 120 % of control | dose: 50.0 mg/kg/injection, schedule: Q01DX009 (ip), vehicle: suspension in saline 109 % of control | dose: 100.0 mg/kg/injection, schedule: Q01DX009 (ip), vehicle: suspension in saline 109 % of control

O=C(O)CNC(=O)/C=C/c1ccc(O)c(O)c1
inactive: [2] 114 % of control | [3] 100 % of control | [4] 100 % of control

CC1(C)COC(c2ccccc2-c2ccccc2C2OCC(C)(C)CO2)OC1
inactive: dose: 100.0 mg/kg/injection, schedule: Q04DX003 (ip), vehicle: saline 100 % of control | dose: 200.0 mg/kg/injection, schedule: Q04DX003 (ip), vehicle: saline 99 % of control | dose: 400.0 mg/kg/injection, schedule: Q04DX003 (ip), vehicle: saline 104 % of control

O=C1c2ccccc2C(=O)c2c1c(Cl)cc1c(=O)c3cc(Cl)cc(Cl)c3[nH]c21
inactive: [5] 99 % of control | [6] 95 % of control | [7] 92 % of control

COc1ccc(NC2=CC(=S)NC(C)(C)C2)cc1
inactive: [1] 92 % of control | dose: 100.0 mg/kg/injection, schedule: Q01DX009 (ip), vehicle: saline 104 % of control | dose: 200.0 mg/kg/injection, schedule: Q01DX009 (ip), vehicle: saline 104 % of control

CCOC(=O)CC/C(=C\NC(=O)c1ccccc1)NC(=O)c1ccccc1
inactive: [8] 96 % of control | [9] 88 % of control | dose: 240.0 mg/kg/injection, schedule: Q01DX005 (ip), vehicle: saline with Tween-80 90 % of control

CCCCC(CC)CN(CC(CC)CCCC)C(=O)C(C)O (stereo unspecified)
inactive: [5] 105 % of control | [6] 103 % of control | [7] 108 % of control

CC1(CO)CCCC1NCCNC1CCCC1(C)CO (stereo unspecified)
inactive: [8] 102 % of control | [9] 105 % of control

O=C(c1cc2c(cc1Br)OCO2)N1CCc2cc([N+](=O)[O-])ccc21
inactive: dose: 12.5 mg/kg/injection, schedule: Q01DX009 (ip), vehicle: other 118 % of control | [10] 110 % of control | [11] 105 % of control | [12] 104 % of control

CC(=O)N1CCc2cc(C(C)C)ccc21
inactive: [10] 97 % of control | [11] 97 % of control | dose: 100.0 mg/kg/injection, schedule: Q01DX009 (ip), vehicle: other 91 % of control | [12] 103 % of control | dose: 400.0 mg/kg/injection, schedule: Q01DX009 (ip), vehicle: other 88 % of control

O=C(CCl)NNC(=O)CCl
inactive: dose: 12.5 mg/kg/injection, schedule: Q01DX009 (ip), vehicle: Klucel (hydroxypropylcellulose) (HPC) 117 % of control

COc1ccc2c(c1OC)C1NCCc3cc4c(cc3C1(OC)C2=O)OCO4 (stereo unspecified)
inactive: dose: 25.0 mg/kg/injection, schedule: Q01DX005 (ip), vehicle: distilled water + Tween-80 + alcohol 109 % of control | dose: 50.0 mg/kg/injection, schedule: Q01DX005 (ip), vehicle: distilled water + Tween-80 + alcohol 104 % of control | dose: 100.0 mg/kg/injection, schedule: Q01DX005 (ip), vehicle: distilled water + Tween-80 + alcohol 107 % of control | dose: 200.0 mg/kg/injection, schedule: Q01DX005 (ip), vehicle: distilled water + Tween-80 + alcohol 103 % of control

Brc1ccc(-c2ccc3nnnn3n2)s1
inactive: [2] 91 % of control | [3] 95 % of control | [4] 87 % of control

CCOP(=O)(Nc1ccc2c(c1)C(=O)c1ccccc1-2)OCC
inactive: [2] 102 % of control | [3] 96 % of control | [4] 96 % of control

CNC(=O)C(C(=O)NC)n1cnc(C(=O)OC)c1O
inactive: dose: 60.0 mg/kg/injection, schedule: Q01DX005 (ip), vehicle: water 108 % of control | dose: 120.0 mg/kg/injection, schedule: Q01DX005 (ip), vehicle: water 107 % of control | dose: 240.0 mg/kg/injection, schedule: Q01DX005 (ip), vehicle: water 107 % of control

O=C1C=CC(=O)C2=C1CCOC2c1ccccc1 (stereo unspecified)
inactive: [5] 91 % of control

c1ccc(-c2nnc(-c3ccccn3)nn2)nc1
inactive: dose: 25.0 mg/kg/injection, schedule: Q01DX009 (ip), vehicle: Klucel (hydroxypropylcellulose) (HPC) 100 % of control | dose: 50.0 mg/kg/injection, schedule: Q01DX009 (ip), vehicle: Klucel (hydroxypropylcellulose) (HPC) 99 % of control | dose: 100.0 mg/kg/injection, schedule: Q01DX009 (ip), vehicle: Klucel (hydroxypropylcellulose) (HPC) 100 % of control | dose: 200.0 mg/kg/injection, schedule: Q01DX009 (ip), vehicle: Klucel (hydroxypropylcellulose) (HPC) 108 % of control | dose: 400.0 mg/kg/injection, schedule: Q01DX009 (ip), vehicle: Klucel (hydroxypropylcellulose) (HPC) 96 % of control

NNC(=O)c1ccc(N)cc1
inactive: dose: 50.0 mg/kg/injection, schedule: Q01DX009 (ip), vehicle: saline with Tween-80 100 % of control | dose: 50.0 mg/kg/injection, schedule: Q04DX003 (ip), vehicle: saline with Tween-80 104 % of control | dose: 100.0 mg/kg/injection, schedule: Q01DX009 (ip), vehicle: saline with Tween-80 100 % of control | dose: 100.0 mg/kg/injection, schedule: Q04DX003 (ip), vehicle: saline with Tween-80 104 % of control | dose: 200.0 mg/kg/injection, schedule: Q01DX009 (ip), vehicle: saline with Tween-80 100 % of control

CC(C)(C)C1(c2ccccc2)C(=O)c2ccccc2C1=O
inactive: dose: 100.0 mg/kg/injection, schedule: Q04DX002 (ip), vehicle: saline 100 % of control | dose: 200.0 mg/kg/injection, schedule: Q04DX002 (ip), vehicle: saline 97 % of control | dose: 400.0 mg/kg/injection, schedule: Q04DX002 (ip), vehicle: saline 101 % of control
